Values of other authors in US20040142353A1, “Compositions and methods for identifying plants having increased tolerance to imidazolinone herbicides” (priority 2002, published 2004).
Read-outs that look alike come from different tables or passages of the source.

Columns and labels:
[1] = tested on: B. napus mutants P1 and P2; settings: B. napus (cv 'Topas') mutants P1 and P2
[2] = tested on: B. napus P1, P2, and P1×P2 hybrid; settings: field trials

In the case of `CCc1cnc(C2=NC(C)(C(C)C)C(=O)N2)c(C(=O)O)c1` (centres unmarked) [PURSUIT®, 2-[4,5-dihydro-4-methyl-4-(1-methylethyl)-5-oxo-1H-imidazol-2-yl]-5-ethyl-3-pyridinecarboxylic acid], the “tolerance of mutant AHAS enzyme relative to wild type enzyme” value (AHAS enzyme; AHAS enzyme of homozygous P1 mutant vs wild type enzyme) is listed as “only slightly more tolerant”, the “tolerance of mutant AHAS enzyme relative to wild type enzyme” value (AHAS enzyme; AHAS enzyme of homozygous P2 mutant vs wild type enzyme) is listed as 500 times and the “level of herbicide tolerated by mutant plants” value [1] is listed as “approaching ten times the field-recommended rates”.

For “methyl esters of 2-[4,5-dihydro-4-methyl-4-(1-methylethyl)-5-oxo-1H-imidazol-2-yl]-4-methylbenzoic acid and 2-[4,5-dihydro-4-methyl-4-(1-methylethyl)-5-oxo-1H-imidazol-2-yl]-5-methylbenzoic acid [ASSERT®]”, the “application rate withstood with no loss of yield” value [2] is listed as “up to 800 g/ha” and the “level of herbicide tolerated by mutant plants” value [1] is listed as “approaching ten times the field-recommended rates”.
